We go through six compounds from US20230220346A1, “BIOLOGICALLY SYNTHESIZED HYDROXYAPATITE FOR BONE REGENERATION AND TISSUE ENGINEERING” (BIOVENTURES, LLC, priority 2019, published 2023).

Assay [1] has as its system MG-63 and Saos-2 cell lines. Kind of assay: Alizarin Red S biomineralization assay: phosphate source comparison, titration, ascorbic acid (FIG. 1A, 1C, 1E-G). The format is cell-based, human. The conditions noted are these: for biomineralization with the substance as organic phosphate source: substituted for βGP, 2 mM, with ALP, FIG. 1B,C; for dose dependence of biomineralization (titration assays): FIG. 1E-G. As for the experimental part: (§1) Biomineralization assays and Alizarin Red S staining: All human and mouse cell lines and human peripheral blood mononuclear cells (MNCs) were maintained in MEMα/10% FBS with penicillin/streptomycin and glutamine in a 37° C. humidified incubator with 5% CO2. […] The medium was replaced after 4 days. Alizarin Red S staining was performed at room temperature by removing the culture medium, washing the cells twice with 1×PBS (pH 7.4), fixing the cells in 10% neutral buffered formalin (Richard-Allan Scientific, Kalamazoo, Mich., USA) for 30 min, rinsing twice with Milli-Q water, staining with Alizarin Red S for 30 min, and destaining twice in Milli-Q water. A ZEISS inverted fluorescence/brightfield microscope equipped with an Infinity 3 digital camera and software system was used for imaging.

Assay [2] relates to Saos-2 cell line. Kind of assay: Alizarin Red S (ARS) biomineralization assay in Saos-2. The format is cell-based, human. To be noted: for biomineralization (Alizarin Red S staining): MEMα/10% FBS plus the supplement only, no ALP added, 7 days. As for the experimental part:
as §1

In assay [3] the test system is human blood mononuclear cells (MNCs). Nature of the assay: Alizarin Red S biomineralization assay in human blood mononuclear cells. The format is cell-based. To be noted: MEMα/10% FBS with αGP alone or CIP alone (the other missing), 7 days. As for the experimental part:
as §1
Coating cell culture plate with Collagen Type I, rat tail for mineralization assays: To coat a 48-well plate with Collagen Type I at 5 μg/cm^2, the stock solution was diluted to 25 μg/mL in 17.5 mM of acetic acid and aliquoted […] into each well. After incubating at room temperature for one hour, the Collagen Type I solution was removed. Each well was rinsed with 1×PBS (pH 7.4) and air-dried at room temperature. Human blood MNCs were suspended in the conditioned media and distributed into each well (1×10^5 cell/well) prior to a 7-day incubation. […]

Assay [4] has as its system MG-63 cell line. Kind of assay: Alizarin Red S (ARS) biomineralization assay in MG-63. The conditions noted are these: MEMα/10% FBS plus the supplement only, no ALP added, 7 days. The format is cell-based, human. As for the experimental part:
as §1

For the compound `NCCC(O)(P(=O)(O)O)P(=O)(O)O` [pamidronate], in assay [1], the “biomineralization with the substance as organic phosphate source” value was “did not occur”.
For the compound `O=P(O)(O)OCC(O)CO` (stereo not drawn) [NSC 9231, glycerophosphoric acid], in assay [1], the “biomineralization with the substance as organic phosphate source” value is “did not occur”.
For the compound `O.O=P([O-])([O-])OCC(O)CO.[Na+].[Na+]` (stereo not drawn) [αGP, Disodium α-glycerophosphate hydrate], in assay [2] (MEMα/10% FBS with 2 mM αGP), the “incubation time until biomineralization occurred at cytoplasmic membrane and cytosol” value was at most 24 h. The “biomineralization (Alizarin Red S staining)” value in assay [3] is on record as “did not occur”. Also, the “dose dependence of biomineralization (titration assays)” value in assay [1] was “depended on the doses”. Moreover, the “relative efficiency of phosphoester salts in eliciting biomineralization” value in assay [1] (compared to βGP and PEP, FIG. 1C) is listed as “most efficient”.
For `O=C1O[C@H]([C@@H](O)CO)C(O)=C1O` [Vit. C, Ascorbic acid], the “biomineralization (Alizarin Red S staining)” value in assay [2] and in assay [4] was “No mineralization” in each case. For the same compound, the “need of ascorbic acid for biomineralization” value in assay [1] (MEMα with or without ascorbic acid, FIG. 1A and FIG. 8) is reported as “unnecessary or even deleterious”.
For `O=P([O-])([O-])OC(CO)CO.[Na+].[Na+]` [βGP, disodium β-glycerophosphate], the “biomineralization (Alizarin Red S staining)” value is given as “could mineralize” in assay [2] and “could not” in assay [4].
Regarding `[Ca+2]` [Ca^2+, calcium ions], in assay [1], the “dose dependence of biomineralization (titration assays)” value was “depended on the doses”.
